Values belong to the molecule of their own block, whether it stands above or below them.
Columns and labels:
MO binding to HAEC = experiment: Monocyte binding to human aortic endothelial cells; format: cell-based
Protocol: The rate of atherosclerosis is accelerated in humans with diabetes mellitus (DM). Applicants recently published evidence that high glucose (HG) exposure of human aortic endothelial cells (HAEC) selectively increases monocyte (MO) but not neutrophil binding (56). HG exposure to EC can increase arachidonic acid (AA) release and lipoxygenase (LO) production formation. In the current study, applicants evaluated the role of 12- and 15-LO products in MO binding to HAEC. Culture of HAEC in HG (25 mM) for two passages increased MO binding compared to cells maintained in 5.5 mM glucose (239±30 cells/field HG vs 111±7, p<0.01). Phenidone (10^−6M), an inhibitor of the 12-LO pathway (50 percent inhibition of HG-induced binding, p<0.05). […] 12(S)-HETE added to HAEC cultured in 5.5 mM glucose increased MO binding (66±6 cells/field control vs 114±4 12-HETE 10^−10M, p<0.01). […] In summary, (1) elevated glucose increases MO binding to HAEC and this effect can be reduced by blockade of the LO pathway; (2) 12 but not 15-LO products, can increase MO binding.

MAP kinase activity = experiment: AII- and 12-HETE-induced mitogenic (MAP kinase) activities with 12-LO inhibitors; format: cell-based, Chinese hamster
Protocol: It has been discovered that the administration of AII results in biphasic activation of MAP kinase (all of the MAP kinase experiments were conducted in CHO-AT1a cells—AII receptor AT1a cDNA transfected Chinese hamster ovary cells). […] Thus, the administration of a 12-LO inhibitor decreases AII- and/or 12-HETE-induced MAP kinase activity, thereby decreasing the effects which AII and/or 12-HETE have on cell growth and development.

MCF-7 cells = experiment: Proliferation of MCF-7 cells; format: cell-based, human; details: baicalein 10 μM, CDC 10^−5M, NDGA 30 μM, ibuprofen 10^−5M
[1] = test system: VEGF in vascular smooth muscle cells (VSMC); experiment: VEGF protein, mRNA and secretion in VSMC (Western, Northern, EIA); format: cell-based, Porcine and human
Protocol: In addition to the work reflected in FIGS. 8-10, it has now been discovered that AII, 12-HETE and hyperglycemia (HG) increase VEGF production in vascular smooth muscle cells (VSMC). Porcine and human VSMC were cultured for at least two passages under normal glucose (NG, 5.5 mM) or under HG conditions. VEGF protein expression was determined by Western blotting and VEGF mRNA by Northern blots. HG alone increased the level of VEGF mRNA (2.8-fold) and protein (3.2-fold). […] In addition, HG increased the secretion of VEGF into the medium as measured by a specific EIA (56.2±4 ng/ml NG vs 73±5 HG, p<0.02).

[2] = test system: 12-HETE in L6 muscle cells; experiment: 12-HETE in L6 muscle cells; format: cell-based, rat; details: n = 2
Protocol: 6. […] L6 muscle cells are skeletal muscle cells from rats which have been used to investigate the mechanisms of insulin action. When L6 muscle cells are incubated in xylose (5.5, mM), they are much more responsive to insulin when compared to cells in regular glucose (5.5 mM) or high glucose (25 mM). […] Thus, elevated 12-Lipoxygenase products, such as 12-HETE, appear to play an important role in reduced insulin metabolic actions caused by high glucose.

Molecule: 12(R)-Hydroxyeicosatrienoic acid
lowest concentration showing effects on MO binding (MO binding to HAEC): 10^−12 M

Molecule: CCCCC[C@H](O)/C=C/C=C\C/C=C\C/C=C\CCCC(=O)O [15(S)-HETE]
MO binding to HAEC (MO binding to HAEC; 15(S)-HETE 10^−6 to 10^−12M): did not stimulate

AII- and 12-HETE-induced mitogenic activities (MAP kinase activity): dose-dependently reduce
Molecule: N#C/C(=C\c1ccc(O)c(O)c1)C(=O)OC/C=C/c1ccccc1 [CDC]
proliferation of MCF-7 cells (MCF-7 cells): significantly inhibited

Molecule: O=C[C@H](O)[C@@H](O)[C@H](O)[C@H](O)CO [HG, glucose]
level of VEGF mRNA ([1]; HG alone vs NG 5.5 mM): 2.8 fold
level of VEGF protein ([1]; HG alone vs NG 5.5 mM): 3.2 fold
secretion of VEGF into the medium (EIA) ([1]; HG, NG 56.2±4): 73 ± 5 ng/mL
MO binding (MO binding to HAEC; HAEC in HG 25 mM for two passages, 5.5 mM glucose 111±7): 239±30 cells/field
12-HETE in the cells ([2]; high glucose 25 mM): 620 pg/total cells
12-HETE release in the media ([2]; high glucose 25 mM): 110.3 pg/mL
12-HETE in the cells ([2]; regular glucose 5.5 mM): 472 pg/total cells
12-HETE release in the media ([2]; regular glucose 5.5 mM): 101.8 pg/mL

Molecule: CC(Cc1ccc(O)c(O)c1)C(C)Cc1ccc(O)c(O)c1 (centres unmarked) [NDGA]
proliferation of MCF-7 cells (MCF-7 cells): significantly inhibited

Molecule: O=C1CCN(c2ccccc2)N1 [Phenidone]
inhibition at 1 µM (MO binding to HAEC; Homo sapiens, Phenidone 10^−6M, read-out: inhibition of HG-induced MO binding): 50%
